Results from ChEMBL document CHEMBL3352173, “Optimization of pyrrolamide topoisomerase II inhibitors toward identification of an antibacterial clinical candidate (AZD5099)” (J Med Chem, 2014).
Values after ≈ are worked out from the molar mass of the structure shown.

Columns and labels:
Staphylococcus aureus [1] = test: Antimicrobial activity against methicillin-resistant Staphylococcus aureus by broth microdilution/CLSI method; assay type: functional
Cytochrome P450 3A4 = Cytochrome P450 3A4 (Homo sapiens, UniProt P08684); test: Inhibition of human CYP3A4 at 50 uM; assay type: ADME
Sequence of Cytochrome P450 3A4 (P08684 whole entry): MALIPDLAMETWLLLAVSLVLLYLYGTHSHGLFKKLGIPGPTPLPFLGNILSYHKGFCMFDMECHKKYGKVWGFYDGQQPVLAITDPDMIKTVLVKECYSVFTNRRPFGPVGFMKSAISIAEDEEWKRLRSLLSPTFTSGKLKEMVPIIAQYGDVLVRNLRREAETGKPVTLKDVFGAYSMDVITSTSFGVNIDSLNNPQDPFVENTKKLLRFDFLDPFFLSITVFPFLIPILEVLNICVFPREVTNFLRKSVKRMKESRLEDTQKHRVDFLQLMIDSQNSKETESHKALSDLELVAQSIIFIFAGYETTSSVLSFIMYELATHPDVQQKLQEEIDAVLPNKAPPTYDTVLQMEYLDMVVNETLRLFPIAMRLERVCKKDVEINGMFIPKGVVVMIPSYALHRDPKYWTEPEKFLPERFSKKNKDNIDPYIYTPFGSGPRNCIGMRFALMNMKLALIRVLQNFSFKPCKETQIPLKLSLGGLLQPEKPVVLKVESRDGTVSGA

Enterococcus faecalis [2] = test: Antimicrobial activity against vancomycin-resistant Enterococcus faecalis by broth microdilution/CLSI method; assay type: functional
Streptococcus pneumoniae = test: Antibacterial activity against Streptococcus pneumoniae by broth microdilution/CLSI method; assay type: functional; settings: Streptococcus pneumoniae; read-out: MIC
Cytochrome P450 2D6 = Cytochrome P450 2D6 (Homo sapiens, UniProt P10635); test: Inhibition of human CYP2D6 at 50 uM; assay type: ADME
Sequence of Cytochrome P450 2D6 (P10635 whole entry): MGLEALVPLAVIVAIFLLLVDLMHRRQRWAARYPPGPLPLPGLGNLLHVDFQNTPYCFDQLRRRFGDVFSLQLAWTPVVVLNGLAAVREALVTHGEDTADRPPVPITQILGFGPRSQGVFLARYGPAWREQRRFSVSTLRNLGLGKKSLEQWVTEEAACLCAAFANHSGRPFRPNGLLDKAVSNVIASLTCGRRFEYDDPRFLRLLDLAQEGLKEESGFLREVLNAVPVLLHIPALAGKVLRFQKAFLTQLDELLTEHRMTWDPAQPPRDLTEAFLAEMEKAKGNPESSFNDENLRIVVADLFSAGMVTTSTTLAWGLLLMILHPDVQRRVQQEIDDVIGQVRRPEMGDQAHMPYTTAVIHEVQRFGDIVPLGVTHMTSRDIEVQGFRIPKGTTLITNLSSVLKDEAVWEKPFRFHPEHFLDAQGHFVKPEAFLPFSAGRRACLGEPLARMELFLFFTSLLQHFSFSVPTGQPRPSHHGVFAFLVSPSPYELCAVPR

[3] = Bioavailability in CD1 mouse at 10 mg/kg, […]; assay type: ADME, organism-based; settings: in vivo
[4] = Clearance in Wistar rat at 10 mg/kg, iv; assay type: ADME, organism-based; set-up: dose 10 mg/kg, route intravenous; settings: in vivo
Staphylococcus aureus [5] = test: Antimicrobial activity against Staphylococcus aureus ARC1692 by broth microdilution/CLSI method; assay type: functional
Enterococcus faecalis [6] = test: Antimicrobial activity against Enterococcus faecalis by broth microdilution/CLSI method; assay type: functional
Enterococcus faecium [7] = test: Antimicrobial activity against vancomycin-resistant Enterococcus faecium by broth microdilution/CLSI method; assay type: functional
Staphylococcus aureus [8] = test: Antibacterial activity against methicillin-sensitive Staphylococcus aureus ARC516 infected in ip dosed neutropenic CD1 mouse thigh model assessed as decrease in bacterial viable counts after 24 hrs; assay type: functional, organism-based; settings: Thigh muscle
[9] = Percentage unbound in human plasma; assay type: ADME, cell-free
Staphylococcus aureus [10] = test: Antimicrobial activity against 2 times drug resistance selected Staphylococcus aureus ARC1692-2F by broth microdilution/CLSI method; assay type: functional
Moraxella catarrhalis = test: Antimicrobial activity against Moraxella catarrhalis by broth microdilution/CLSI method; assay type: functional; settings: Moraxella catarrhalis; read-out: MIC
[11] = Octanol-phosphate buffer distribution coefficient, log D of the compound at pH 7.4 by shake flask method; assay type: physicochemical
[12] = Percentage unbound in rat plasma; assay type: ADME, cell-free
Staphylococcus aureus [13] = test: Ratio of MIC for 2 times drug resistance selected Staphylococcus aureus ARC1692-2F to MIC for Staphylococcus aureus ARC1692; assay type: functional
Staphylococcus aureus [14] = test: Antimicrobial activity against 2 times drug resistance selected Staphylococcus aureus ARC2381-2F by broth microdilution/CLSI method; assay type: functional
Staphylococcus aureus [15] = test: Antimicrobial activity against Staphylococcus aureus ARC2398 by broth microdilution/CLSI method; assay type: functional
Haemophilus influenzae = test: Antimicrobial activity against Haemophilus influenzae by broth microdilution/CLSI method; assay type: functional; settings: Haemophilus influenzae; read-out: MIC
[16] = Solubility of the compound; assay type: physicochemical
Staphylococcus aureus [17] = test: Antimicrobial activity against 2 times drug resistance selected Staphylococcus aureus ARC1692-1F by broth microdilution/CLSI method; assay type: functional
Escherichia coli = test: Antimicrobial activity against Escherichia coli tolC- by broth microdilution/CLSI method; assay type: functional; settings: Escherichia coli; read-out: MIC
[18] = Percentage unbound in mouse plasma; assay type: ADME, cell-free
Staphylococcus aureus [19] = test: Antibacterial activity against methicillin-sensitive Staphylococcus aureus ARC516 infected in ip dosed neutropenic CD1 mouse thigh model assessed as decrease in bacterial viable counts treated for q24; assay type: functional; settings: ARC516, Thigh muscle
Staphylococcus aureus [20] = test: Ratio of MIC for 2 times drug resistance selected Staphylococcus aureus ARC2398-2F to MIC for Staphylococcus aureus ARC2398; assay type: functional
[21] = Clearance in dog at 10 mg/kg, iv; assay type: ADME, organism-based, Canis lupus familiaris; set-up: dose 10 mg/kg, route intravenous; settings: plasma
Staphylococcus aureus [22] = test: Antimicrobial activity against 2 times drug resistance selected Staphylococcus aureus ARC2398-2F by broth microdilution/CLSI method; assay type: functional
Staphylococcus aureus [23] = test: Antimicrobial activity against 2 times drug resistance selected Staphylococcus aureus ARC2398-1F by broth microdilution/CLSI method; assay type: functional
Cytochrome P450 2C9 = Cytochrome P450 2C9 (Homo sapiens, UniProt P11712); test: Inhibition of human CYP2C9 at 50 uM; assay type: ADME
Sequence of Cytochrome P450 2C9 (P11712 whole entry): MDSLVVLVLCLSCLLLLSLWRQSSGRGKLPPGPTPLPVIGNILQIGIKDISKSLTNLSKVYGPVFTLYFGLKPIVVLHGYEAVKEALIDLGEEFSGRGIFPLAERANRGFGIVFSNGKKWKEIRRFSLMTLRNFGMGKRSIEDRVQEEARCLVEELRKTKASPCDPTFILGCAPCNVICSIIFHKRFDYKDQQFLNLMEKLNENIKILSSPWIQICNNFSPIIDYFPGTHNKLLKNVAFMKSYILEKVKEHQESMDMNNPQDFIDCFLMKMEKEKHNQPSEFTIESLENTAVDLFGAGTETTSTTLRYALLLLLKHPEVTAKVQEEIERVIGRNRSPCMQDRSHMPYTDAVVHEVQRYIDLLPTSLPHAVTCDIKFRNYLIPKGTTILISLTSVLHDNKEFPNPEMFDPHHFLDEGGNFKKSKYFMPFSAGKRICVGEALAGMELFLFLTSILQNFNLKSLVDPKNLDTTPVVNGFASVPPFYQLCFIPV

Enterococcus faecium [24] = test: Antimicrobial activity against Enterococcus faecium by broth microdilution/CLSI method; assay type: functional
[25] = Clearance in rat at 10 mg/kg, iv; assay type: ADME, organism-based; set-up: dose 10 mg/kg, route intravenous; settings: in vivo
[26] = Clearance in CD1 mouse at 10 mg/kg, iv; assay type: ADME, organism-based; set-up: dose 10 mg/kg, route intravenous; settings: in vivo
[27] = Clearance in TR-negative Wistar rat at 10 mg/kg, iv; assay type: ADME, organism-based; set-up: dose 10 mg/kg, route intravenous; settings: in vivo
Staphylococcus aureus [28] = test: Ratio of MIC for 2 times drug resistance selected Staphylococcus aureus ARC516-1F to MIC for Staphylococcus aureus ARC516; assay type: functional

Question: For COC[C@H](C)NC(=O)c1nc(N2CC[C@@H](NC(=O)c3[nH]c(C)c(Cl)c3Cl)[C@@H](OC)C2)sc1C(=O)O [AZD-5099], which MIC90 (Staphylococcus aureus [1]) is on record?
Answer: 0.06 µg/mL (≈ 0.109 µM)

Question: And the “inhibition (INH)” value (Cytochrome P450 3A4)?
Answer: Not Active

Question: What about the MIC90 (Enterococcus faecalis [2]) of the same compound?
Answer: 0.015 µg/mL (≈ 0.0273 µM)

Question: What about the MIC (Streptococcus pneumoniae) of the same compound?
Answer: 0.016 µg/mL (≈ 0.0292 µM)

Question: What about the “inhibition (INH)” value (Cytochrome P450 2D6) of the same compound?
Answer: Not Active

Question: What about the bioavailability [3] of the same compound?
Answer: 100%

Question: What about the clearance [4] of the same compound?
Answer: 4 mL/min/kg

Question: And the MIC (Staphylococcus aureus [5])?
Answer: 0.06 µg/mL (≈ 0.109 µM)

Question: What about the MIC90 (Enterococcus faecalis [6]) of the same compound?
Answer: 0.015 µg/mL (≈ 0.0273 µM)

Question: And the MIC90 (Enterococcus faecium [7])?
Answer: 0.06 µg/mL (≈ 0.109 µM)

Question: What about the inhibition (Staphylococcus aureus [8]) of the same compound?
Answer: Dose-dependent effect

Question: And the fraction unbound [9]?
Answer: 0.025

Question: What about the MIC (Staphylococcus aureus [10]) of the same compound?
Answer: 0.5 µg/mL (≈ 0.912 µM)

Question: And the MIC (Moraxella catarrhalis)?
Answer: < 8 ng/mL

Question: And the logD [11]?
Answer: 1.4

Question: What about the fraction unbound [12] of the same compound?
Answer: 0.034

Question: What about the Ratio (Staphylococcus aureus [13]) of the same compound?
Answer: 8

Question: And the MIC (Staphylococcus aureus [14])?
Answer: 0.13 µg/mL (≈ 0.237 µM)

Question: What about the MIC (Staphylococcus aureus [15]) of the same compound?
Answer: 0.03 µg/mL (≈ 0.0547 µM)

Question: What about the MIC (Haemophilus influenzae) of the same compound?
Answer: 0.13 µg/mL (≈ 0.237 µM)

Question: And the solubility [16]?
Answer: 960 µM (≈ 527 µg/mL)

Question: And the MIC (Staphylococcus aureus [17])?
Answer: 0.5 µg/mL (≈ 0.912 µM)

Question: And the MIC (Escherichia coli)?
Answer: 0.94 µg/mL (≈ 1.71 µM)

Question: And the fraction unbound [18]?
Answer: 0.047

Question: And the MIC (Staphylococcus aureus [19])?
Answer: 0.03 µg/mL (≈ 0.0547 µM)

Question: What about the Ratio (Staphylococcus aureus [20]) of the same compound?
Answer: 16

Question: What about the clearance [21] of the same compound?
Answer: 0.64 mL/min/kg

Question: And the MIC (Staphylococcus aureus [22])?
Answer: 0.5 µg/mL (≈ 0.912 µM)

Question: And the MIC (Staphylococcus aureus [23])?
Answer: 0.5 µg/mL (≈ 0.912 µM)

Question: What about the “inhibition (INH)” value (Cytochrome P450 2C9) of the same compound?
Answer: Not Active

Question: And the MIC90 (Enterococcus faecium [24])?
Answer: 0.06 µg/mL (≈ 0.109 µM)

Question: What about the clearance [25] of the same compound?
Answer: 14 mL/min/kg

Question: What about the clearance [26] of the same compound?
Answer: 10 mL/min/kg

Question: What about the clearance [27] of the same compound?
Answer: 2.1 mL/min/kg

Question: And the Ratio (Staphylococcus aureus [28])?
Answer: 16
